Assay results: patent US12685315B2, “Herbicidal combination” (UPL do Brasil Industria e Comercio de Insumos Agropecuarios …, priority 2019, dated 2026)

Assays:
[1] = test system: Commelina benghalensis; experiment: Field trial of triple mixes of amicarbazone, pre-emergence weed control; format: in vivo; conditions: dose g ai/ha: Amicarbazone 75, Mesotrione 38, Ametryn 250, mix AMC + AME + MST 75 + 38 + 250
Experimental: (§1) Field trials were done to evaluate the efficacy and synergism of the triple mixes of amicarbazone with other herbicides for the control of weeds in pre and post-emergence application.
(§2) The composition of the present invention was applied. This test was performed for species of weeds: Grasses namely BRADC=Brachiaria decumbens, CCHEC=Cenchrus echinatus, ELEIN=Eleusine indica, TRCIN=Digitaria insularis and Broadleaves namely IAQGR=Ipomoea grandifolia, EPHHL=Euphorbia heterophylla, COMBE=Commelina benghalensis. Data were collected at various period after application of the composition to the soil and calculated.

[2] = test system: Eleusine indica; experiment: Field trial of triple mixes of amicarbazone, pre and post-emergence weed control; format: in vivo; conditions: Table 10, dose g ai/ha: Amicarbazone 75, Mesotrione 38, Ametryn 250, mix AMC + AME + MST 75 + 38 + 250
Experimental: as §1, §2

SMILES	% Control ([1]; Table 11, 21 DAA) [%]	% Control ([1]; Table 11, 28 DAA) [%]	% Control ([1]; Table 11, 35 DAA) [%]	% Control ([2]; Post-Emergence, 14 DAA) [%]	% Control ([2]; Post-Emergence, 21 DAA) [%]	% Control ([2]; Post-Emergence, 28 DAA) [%]	% Control ([2]; Pre-Emergence, 14 DAA) [%]	% Control ([2]; Pre-Emergence, 21 DAA) [%]	% Control ([2]; Pre-Emergence, 28 DAA) [%]
CCNc1nc(NC(C)C)nc(SC)n1 [Ametryn]	15.0	8.8	2.5	53.8	27.5	22.5	51.3	42.5	35.0
CS(=O)(=O)c1ccc(C(=O)C2C(=O)CCCC2=O)c([N+](=O)[O-])c1 [Mesotrione]	67.5	65.0	51.3	57.5	43.8	35.0	26.3	2.5	0.0
